From publication PMC9241695, “Selective Metal Chelation by a Thiosemicarbazone Derivative Interferes with Mitochondrial Respiration and Ribosome Biogenesis in Candida albicans” (Microbiology Spectrum, 2022) come the findings set out here.

The subject of assay [1] is SOD. In words: SOD activity in treated cells. Type of assay: cell-based, Candida albicans. The conditions noted are these: 0.5 μg/mL or above, 6 h. Here is the method: Determination of SOD activity. SOD activity was measured using the Superoxide Dismutase Activity Assay Kit (Njjcbio, Nanjing, China) following the manufacturer's instructions. An overnight culture of C. albicans SC5314 was adjusted to 1 × 10^7 cells/mL with RPMI1640 medium and treated with 19ak at a final concentration of 0, 0.125, 0.25, 0.5, or 1 μg/mL for 6 h. After collection by centrifugation, the cells were broken by glass beads in extraction buffer and centrifuged at 4°C. The absorbance of the supernatant of each sample was measured with a microplate reader at450 nm.
Determination of catalase (CAT) activity. CAT activity was measured by using a Catalase Assay Kit (Solarbio, Beijing, China) following the manufacturer's instructions. An overnight culture of C. albicans SC5314 was adjusted to 1 × 10^6 cells/mL with RPMI1640 medium and treated as described above for SOD activity.
The decomposition of H2O2 is directly accompanied by a decrease in absorbance at 240 nm, and the difference in absorbance per unit time (ΔA240) is a measure of […]
Quantitative real-time polymerase chain reaction (qPCR) analysis. C. albicans SC5314 cells (1 × 10^6 cells/mL) were incubated with or without 19ak (0.5,2 μg/mL) in RPMI1640 medium for 6 h. Total RNA was extracted using the hot phenol method, and the RNA quality was analyzed using a spectrophotometer (Eppendorf, Hamburg, Germany). […]

The subject of assay [2] is C. albicans SC5314. In words: Rescue effect of exogenous metal ions on MIC of 19ak. The conditions noted are these: Candida albicans. It counts as cell-based. Here is the method: h (for C. albicans, C. krusei, C. tropicalis, C. parapsilosis) or 48 h (for C. neoformans, A. fumigatus). The MIC was determined based on visible growth inhibition compared with the control. All experiments were performed in duplicate. […]
Rescue effect of exogenous metal ions on fungal growth inhibition by 19ak.
Since the effects of thiosemicarbazone may be due to binding of intracellular metal ions, we investigated the impact of adding metal ions to the medium on the inhibitory effect of 19ak by performing antifungal susceptibility testing as described above in the presence of 50 μM, 100 μM, and 200 μM ZnSO4, FeSO4, and FeCl3. […]

Assay [3] concerns mitochondrial respiratory chain complex I. The assay is described as follows: Mitochondrial respiratory chain complex activity in isolated mitochondria. It counts as biochemical, Candida albicans. The method, then: (§1) Mitochondrial isolation and detection of mitochondrial respiratory chain complex activity. Mitochondria were isolated from C. albicans spheroplasts as previously described (8). A dilution series of 19ak was added to the mitochondrial suspensions to obtain final concentrations of 0, 0.125, 0.25, 0.5, and 1 μg/mL and incubated for 6 h at 30°C. The activities of mitochondrial respiratory chain complexes I-IV were determined by using the Micro Mitochondrial Respiratory Chain Complex Activity Assay Kit (Solarbio, Beijing, China). The concentration of protein was determined using the BCA Protein Assay Kit (Beyotime, Haimen, China).
(§2) Mitochondrial complex activity was expressed as nmol/min/mg protein. […]

The subject of assay [4] is mitochondrial respiratory chain complex III. The assay is described as above. It counts as biochemical, Candida albicans. The conditions noted are these: purified mitochondria, 0.125-1 μg/mL, 6 h. Here is the method:
as §1, §2

For assay [5], the system named is C. albicans SC5314. The assay is described as follows: Time-growth curve with antioxidants. Type of assay: cell-based, Candida albicans. The settings on record: SC medium, 5 mM NAC or 5 mM Tu, 0.25 or 0.5 μg/mL 19ak, 15 h. Here is the method:
(§3) albicans SC5314 cells (1 × 10^6 cells/mL) were challenged with various doses of 19ak and incubated at 30°C for 6 h, followed by staining with 20 μM Rh123 for 30 min in the dark and detection by flow cytometry (Becton Dickinson, CA, USA).
(§4) Measurement of intracellular ATP production. To explore whether 19ak affects intracellular ATP content by damaging mitochondria, we treated C. albicans SC5314 cells (1 × 10^6 cells/mL) with different doses of 19ak. After lysing the cells in lysis buffer, ATP levels were measured with the ATP Assay Kit (Beyotime, Haimen, China) according to the manufacturer's instructions. Cellular protein concentrations were determined using a BCA Protein Assay Kit (Beyotime, Haimen, China). The intracellular ATP content was calculated by referring to a standard curve and normalized using the protein content of each sample for expression as nmol/mg […]
(§5) ROS production assay. […] The fluorescence intensity was then measured by flow cytometry, and the data were analyzed with Win MDI 2.9 software.
(§6) Influence of oxidant or antioxidant molecules on 19ak activity. […] The effects of NAC, Tu and DTT on the growth of 19ak treated fungal cells were measured using a time-growth curve. […] A microplate reader was used to measure the absorbance at600 nm, and the growth curves were plotted.

In assay [6] the test system is C. albicans SC5314 cells. In words: Intracellular ATP production. It counts as cell-based, Candida albicans. The settings on record: 0.125 μg/mL, compared with control cells. The method, then: as §3, §4, §5, §6

In general, MIC refers to the lowest concentration that inhibits growth of the organism.

Read-outs that look alike come from different tables or passages of the source.

On to `C/C(=N\NC(=S)N(C)C)c1ccccn1` [Compound 19ak], for which the SOD activity result in assay [1] is “increased”. In addition, the MIC in assay [2] (SC5314, + 50 μM Fe^2+ (FeSO4), read-out: MIC against C. albicans SC5314) was found to be 1 µg/mL; in assay [2] (SC5314, + 50 μM Fe^3+ (FeCl3), read-out: MIC against C. albicans SC5314) it was 0.25 µg/mL; in assay [2] (SC5314, + 50 μM Zn^2+ (ZnSO4), read-out: MIC against C. albicans SC5314) it was 4 µg/mL; in assay [2] (SC5314, + 100 μM Fe^2+ (FeSO4), read-out: MIC against C. albicans SC5314), 1 µg/mL; in assay [2] (SC5314, + 100 μM Fe^3+ (FeCl3), read-out: MIC against C. albicans SC5314), 0.25 µg/mL; in assay [2] (SC5314, + 100 μM Zn^2+ (ZnSO4), read-out: MIC against C. albicans SC5314), 4 µg/mL. The MIC in assay [2] (SC5314, + 200 μM Fe^2+ (FeSO4), read-out: MIC against C. albicans SC5314) amounted to 1 µg/mL; in assay [2] (SC5314, + 200 μM Fe^3+ (FeCl3), read-out: MIC against C. albicans SC5314), 0.5 µg/mL; in assay [2] (SC5314, + 200 μM Zn^2+ (ZnSO4), read-out: MIC against C. albicans SC5314), 4 µg/mL; in assay [2] (SC5314, read-out: MIC against C. albicans SC5314) it was 0.125 µg/mL. For the same molecule, in assay [3] (100 μM metal ions, 0.125 or 1 μg/mL 19ak), the “Reduction of NADH dehydrogenase activity with extra metal ions” value is given as “partially restored”. Also, the “Activity of mitochondrial respiratory chain complex I (CI, NADH dehydrogenase)” value in assay [3] (purified mitochondria, 0.125-1 μg/mL, 6 h) is given as “significantly inhibited”. Also, in assay [4], the “Activity of mitochondrial respiratory chain complex III” value is listed as “slightly inhibited”. Moreover, the “Effect of antioxidants NAC and Tu on antifungal activity (cell growth monitoring)” value in assay [5] was “greatly enhanced the antifungal activity”. The “Decrease of intracellular ATP levels” value in assay [6] was “approximately 65.8%”.
